Read-outs that look alike come from different tables or passages of the source.
Tests used:
Type in all cases: cell-based
B. fibrisolvens = settings: for M.I.C.: Table III, mass basis, no correction for purity; for Minimal Inhibitory Concentration (bioactivity data): Table IV (separate study)
B. fragilis = settings: strain UC9370
S. bovis = settings: strain JB1
F. necrophorum = settings: for M.I.C.: Table III, mass basis, no correction for purity; for Minimal Inhibitory Concentration (bioactivity data): Table IV (separate study)
R. amylophilus = settings: strain H18
S. faecalis = settings: for M.I.C.: Table III, mass basis, no correction for purity; for Minimal Inhibitory Concentration (bioactivity data): Table IV (separate study)
E. ruminantium = settings: strain GA195; Table III; mass basis, no correction for purity
S. hyodysenteriae = tested on: S. hyodysenteriae; design: unit not given here; settings: Table IV (separate study)
Description: (§1) The assay measures the ability of a compound to inhibit the growth of certain types of anaerobic bacteria which normally inhabit the gut of poultry, swine or cattle.
(§2) Two mg/ml solutions of the drugs to be tested are made in 10% v/v ethanol/water. This stock is then diluted to one mg per ml and then further diluted through a series of ten-two fold dilutions. At each concentration an aliquot is placed in a sterile petri plate. Nine volumes of molten agar are then added to each plate, mixed and allowed to harden at room temperature. These plates are then transferred to a Coy chamber and allowed to dry and equilibrate with the oxygen free atmosphere.
(§3) Organisms used for MIC testing are inoculated into broth media, and incubated 18-24 h at 39° C. prior to use. The cultures are then diluted to equal the turbidity of a 0.5 MacFarland barium sulfate standard, except for the porcine isolates P108-3C1, P105-1C3 and P105-1C4 which are diluted 1:1. All inoculations and dilutions are performed in the anaerobic chamber using broth media and syringe transfer through the butyl robber stoppers.
(§4) Freshly prepared and diluted cultures are loaded into the wells of a Steers replicator device. This apparatus can dispense ca 10 μl of each of 32 cultures onto the surface of the preincubated agar plates. One hour after the inoculation, the inoculum will have been absorbed and the plates are inverted and incubated at 38°-39° C. for 48 h. Plates are then removed from the chamber and the MIC for the test compounds determined. MIC's are reported as the lowest concentration of a compound which prevented detectable growth of a test organism on the agar plates. […] Thus, each set of test plates yields individual MIC values for each of the 32 test organisms.

S. ruminantium = settings: for M.I.C.: Table III, mass basis, no correction for purity; for Minimal Inhibitory Concentration (bioactivity data): Table IV (separate study)
C. perfringens = tested on: C. perfringens; design: Minimal Inhibitory Concentration (bioactivity data): unit not given here; settings: for M.I.C.: Table III, mass basis, no correction for purity; for Minimal Inhibitory Concentration (bioactivity data): Table IV (separate study)
[1] = tested on: anaerobic bacteria which normally inhabit the gut of poultry, swine or cattle; experiment: in vitro MIC assay, overall comparison of components across the test organisms; settings: conclusion from Tables III and IV
Description: as §1, §2, §3, §4

M. elsdenii = settings: strain B159
P. ruminicola = settings: strain 118B
L. multiparus = settings: strain 40
B. thetaiotaomicron = settings: strain UC9014
Description: as §1, §2, §3, §4

E. lentum = settings: strain L-34; Table IV (separate study)
R. flavefaciens = settings: for M.I.C.: Table III, mass basis, no correction for purity; for Minimal Inhibitory Concentration (bioactivity data): Table IV (separate study)
[2] = Table III, mass basis, no correction for purity

## C=C(NC(=O)C(=C)NC(=O)C(=C)NC(=O)c1ccc2c(n1)-c1coc(n1)C(=C)NC(=O)C(=C)NC(=O)c1nc(oc1C)/C(=C/C)NC(=O)c1csc(n1)C(OC)NC(=O)c1nc(oc1C)/C(=C/C(C)O)NC(=O)[C@H]([C@@H](C)O)NC(=O)c1csc-2n1)C(N)=O (stereo partly shown) [Antibiotic 10381b, sulfomycin I, reference compound]
B. fibrisolvens; strain 49
  M.I.C.: 6.3 µg/mL
  Minimal Inhibitory Concentration (bioactivity data): 1.6
B. fibrisolvens; strain D1
  M.I.C.: 0.8 µg/mL
  Minimal Inhibitory Concentration (bioactivity data): 0.8
B. fragilis; [2]
  M.I.C.: 25.0 µg/mL
B. fragilis; Table IV (separate study)
  Minimal Inhibitory Concentration (bioactivity data): 50.0
S. bovis; [2]
  M.I.C.: 3.1 µg/mL
S. bovis; Table IV (separate study)
  Minimal Inhibitory Concentration (bioactivity data): 0.8
F. necrophorum; strain FN4070
  M.I.C.: 50.0 µg/mL
  Minimal Inhibitory Concentration (bioactivity data): 100
F. necrophorum; strain FN5052
  M.I.C.: 100.0 µg/mL
  Minimal Inhibitory Concentration (bioactivity data): 100
R. amylophilus; [2]
  M.I.C.: > 100.0 µg/mL
R. amylophilus; Table IV (separate study)
  Minimal Inhibitory Concentration (bioactivity data): 1.6
S. faecalis; strain 71A01
  M.I.C.: 25.0 µg/mL
  Minimal Inhibitory Concentration (bioactivity data): 12.5
S. faecalis; strain CCS1-03
  M.I.C.: 12.5 µg/mL
  Minimal Inhibitory Concentration (bioactivity data): 6.3
S. faecalis; strain P1051C4
  M.I.C.: 12.5 µg/mL
  Minimal Inhibitory Concentration (bioactivity data): 3.1
E. ruminantium
  M.I.C.: 0.4 µg/mL
S. hyodysenteriae; strain 16-4
  Minimal Inhibitory Concentration (bioactivity data): > 100
S. hyodysenteriae; strain B204
  Minimal Inhibitory Concentration (bioactivity data): > 100
S. ruminantium; strain GA31
  M.I.C.: 100.0 µg/mL
  Minimal Inhibitory Concentration (bioactivity data): 0.8
S. ruminantium; strain GA192
  M.I.C.: > 100.0 µg/mL
  Minimal Inhibitory Concentration (bioactivity data): 1.6
C. perfringens; strain 71A02
  M.I.C.: 1.6 µg/mL
  Minimal Inhibitory Concentration (bioactivity data): < 0.2
C. perfringens; strain A82-1
  M.I.C.: 3.1 µg/mL
  Minimal Inhibitory Concentration (bioactivity data): 12.5
C. perfringens; strain A83-3
  M.I.C.: 3.1 µg/mL
  Minimal Inhibitory Concentration (bioactivity data): < 0.2
C. perfringens; strain A83-RKP
  M.I.C.: 0.8 µg/mL
  Minimal Inhibitory Concentration (bioactivity data): 0.8
C. perfringens; strain CCS1-11
  M.I.C.: 6.3 µg/mL
  Minimal Inhibitory Concentration (bioactivity data): < 0.2
C. perfringens; strain CCS2-09
  M.I.C.: 0.8 µg/mL
  Minimal Inhibitory Concentration (bioactivity data): 0.8
C. perfringens; strain P1051C3
  M.I.C.: 50.0 µg/mL
  Minimal Inhibitory Concentration (bioactivity data): 12.5
C. perfringens; strain P1083C1
  M.I.C.: 0.4 µg/mL
  Minimal Inhibitory Concentration (bioactivity data): 1.6
C. perfringens; strain RF1B04
  M.I.C.: 0.4 µg/mL
  Minimal Inhibitory Concentration (bioactivity data): < 0.2
C. perfringens; strain UC9452
  M.I.C.: 3.1 µg/mL
  Minimal Inhibitory Concentration (bioactivity data): 1.6
[1]
  in vitro activity ranking of the individual components: second most active
M. elsdenii; [2]
  M.I.C.: > 100.0 µg/mL
M. elsdenii; Table IV (separate study)
  Minimal Inhibitory Concentration (bioactivity data): > 100
P. ruminicola; [2]
  M.I.C.: < 0.2 µg/mL
P. ruminicola; Table IV (separate study)
  Minimal Inhibitory Concentration (bioactivity data): < 0.2
L. multiparus; [2]
  M.I.C.: 1.6 µg/mL
L. multiparus; Table IV (separate study)
  Minimal Inhibitory Concentration (bioactivity data): 1.6
B. thetaiotaomicron; [2]
  M.I.C.: 12.5 µg/mL
B. thetaiotaomicron; Table IV (separate study)
  Minimal Inhibitory Concentration (bioactivity data): 25.0
E. lentum
  Minimal Inhibitory Concentration (bioactivity data): < 0.2
R. flavefaciens; strain C94
  M.I.C.: 0.8 µg/mL
  Minimal Inhibitory Concentration (bioactivity data): 0.8
R. flavefaciens; strain FD1
  M.I.C.: 1.6 µg/mL
  Minimal Inhibitory Concentration (bioactivity data): 1.6
